± gives the expanded uncertainty stated by the source.
Assays:
[1] = Crystal, Transpiration method
[2] = molar heat capacity at constant pressure; details: 101.33 kPa, Crystal, DSC

For `c1ccc2ccccc2c1` [naphthalene], the “vapor or sublimation pressure” value ([1]; 288.2 K) was 0.00418 ± 0.00021 kPa, the “vapor or sublimation pressure” value ([1]; 290.7 K) was 0.00548 ± 0.00028 kPa and the “vapor or sublimation pressure” value ([1]; 293.2 K) was 0.00698 ± 0.00035 kPa. The “vapor or sublimation pressure” value ([1]; 298.2 K) was 0.01114 ± 0.00054 kPa, the “vapor or sublimation pressure” value ([1]; 303.2 K) was 0.01811 ± 0.00088 kPa and the “vapor or sublimation pressure” value ([1]; 308 K) was 0.02903 ± 0.0014 kPa. For the same compound, the “vapor or sublimation pressure” value ([1]; 313.1 K) was 0.04408 ± 0.0021 kPa, the “vapor or sublimation pressure” value ([1]; 318.2 K) was 0.0671 ± 0.0031 kPa and the “vapor or sublimation pressure” value ([1]; 323.1 K) was 0.102 ± 0.0048 kPa. For the same compound, the “vapor or sublimation pressure” value ([1]; 328.1 K) was 0.1538 ± 0.007 kPa, the “vapor or sublimation pressure” value ([1]; 330.5 K) was 0.1867 ± 0.0086 kPa and the “vapor or sublimation pressure” value ([1]; 333 K) was 0.2235 ± 0.01 kPa.
In the case of `O=C(O)c1ccccc1` [benzoic acid], the “molar heat capacity at constant pressure” value ([2]; 318.8 K) is reported as 122.9 ± 25 J/K/mol, the “molar heat capacity at constant pressure” value ([2]; 319.2 K) is reported as 127.1 ± 26 J/K/mol and the “molar heat capacity at constant pressure” value ([2]; 319.7 K) is reported as 130.8 ± 27 J/K/mol. The “molar heat capacity at constant pressure” value ([2]; 320.1 K) was 134.3 ± 27 J/K/mol, the “molar heat capacity at constant pressure” value ([2]; 320.6 K) was 137.7 ± 28 J/K/mol and the “molar heat capacity at constant pressure” value ([2]; 321 K) was 140.7 ± 29 J/K/mol. For the same compound, the “molar heat capacity at constant pressure” value ([2]; 321.4 K) was 143.4 ± 29 J/K/mol, the “molar heat capacity at constant pressure” value ([2]; 321.9 K) was 146.1 ± 30 J/K/mol and the “molar heat capacity at constant pressure” value ([2]; 322.3 K) was 148.4 ± 30 J/K/mol. The “molar heat capacity at constant pressure” value ([2]; 322.7 K) was 150.5 ± 31 J/K/mol, the “molar heat capacity at constant pressure” value ([2]; 323.1 K) was 152.4 ± 31 J/K/mol and the “molar heat capacity at constant pressure” value ([2]; 323.5 K) was 154.1 ± 31 J/K/mol. The “molar heat capacity at constant pressure” value ([2]; 324 K) was 155.6 ± 32 J/K/mol, the “molar heat capacity at constant pressure” value ([2]; 324.4 K) was 157 ± 32 J/K/mol and the “molar heat capacity at constant pressure” value ([2]; 324.8 K) was 158.3 ± 32 J/K/mol. The “molar heat capacity at constant pressure” value ([2]; 325.2 K) was 159.5 ± 32 J/K/mol, the “molar heat capacity at constant pressure” value ([2]; 325.6 K) was 160.4 ± 33 J/K/mol and the “molar heat capacity at constant pressure” value ([2]; 326 K) was 161.3 ± 33 J/K/mol. The “molar heat capacity at constant pressure” value ([2]; 326.4 K) was 162 ± 33 J/K/mol, the “molar heat capacity at constant pressure” value ([2]; 326.8 K) was 162.7 ± 33 J/K/mol and the “molar heat capacity at constant pressure” value ([2]; 327.2 K) was 163.4 ± 33 J/K/mol. The “molar heat capacity at constant pressure” value ([2]; 327.6 K) was 163.9 ± 33 J/K/mol, the “molar heat capacity at constant pressure” value ([2]; 328 K) was 164.3 ± 33 J/K/mol and the “molar heat capacity at constant pressure” value ([2]; 328.3 K) was 164.8 ± 34 J/K/mol. The “molar heat capacity at constant pressure” value ([2]; 328.7 K) was 165.1 ± 34 J/K/mol, the “molar heat capacity at constant pressure” value ([2]; 329.1 K) was 165.3 ± 34 J/K/mol and the “molar heat capacity at constant pressure” value ([2]; 329.5 K) was 165.6 ± 34 J/K/mol. The “molar heat capacity at constant pressure” value ([2]; 329.9 K) was 165.7 ± 34 J/K/mol, the “molar heat capacity at constant pressure” value ([2]; 330.3 K) was 165.9 ± 34 J/K/mol and the “molar heat capacity at constant pressure” value ([2]; 330.6 K) was 166 ± 34 J/K/mol. The “molar heat capacity at constant pressure” value ([2]; 331 K) was 166.3 ± 34 J/K/mol, the “molar heat capacity at constant pressure” value ([2]; 331.4 K) was 166.3 ± 34 J/K/mol and the “molar heat capacity at constant pressure” value ([2]; 331.8 K) was 166.4 ± 34 J/K/mol. For the same compound, the “molar heat capacity at constant pressure” value ([2]; 332.1 K) was 166.4 ± 34 J/K/mol, the “molar heat capacity at constant pressure” value ([2]; 332.5 K) was 166.4 ± 34 J/K/mol and the “molar heat capacity at constant pressure” value ([2]; 332.9 K) was 166.5 ± 34 J/K/mol. The “molar heat capacity at constant pressure” value ([2]; 333.3 K) was 166.5 ± 34 J/K/mol, the “molar heat capacity at constant pressure” value ([2]; 333.6 K) was 166.5 ± 34 J/K/mol and the “molar heat capacity at constant pressure” value ([2]; 334 K) was 166.6 ± 34 J/K/mol. For the same compound, the “molar heat capacity at constant pressure” value ([2]; 334.4 K) was 166.6 ± 34 J/K/mol, the “molar heat capacity at constant pressure” value ([2]; 334.8 K) was 166.5 ± 34 J/K/mol and the “molar heat capacity at constant pressure” value ([2]; 335.1 K) was 166.6 ± 34 J/K/mol. For the same compound, the “molar heat capacity at constant pressure” value ([2]; 335.5 K) was 166.7 ± 34 J/K/mol, the “molar heat capacity at constant pressure” value ([2]; 335.9 K) was 166.7 ± 34 J/K/mol and the “molar heat capacity at constant pressure” value ([2]; 336.2 K) was 166.7 ± 34 J/K/mol. The “molar heat capacity at constant pressure” value ([2]; 336.6 K) was 166.7 ± 34 J/K/mol, the “molar heat capacity at constant pressure” value ([2]; 337 K) was 166.7 ± 34 J/K/mol and the “molar heat capacity at constant pressure” value ([2]; 337.3 K) was 166.7 ± 34 J/K/mol. For the same compound, the “molar heat capacity at constant pressure” value ([2]; 337.7 K) was 166.9 ± 34 J/K/mol, the “molar heat capacity at constant pressure” value ([2]; 338.1 K) was 166.9 ± 34 J/K/mol and the “molar heat capacity at constant pressure” value ([2]; 338.5 K) was 167 ± 34 J/K/mol. For the same compound, the “molar heat capacity at constant pressure” value ([2]; 338.8 K) was 167.1 ± 34 J/K/mol, the “molar heat capacity at constant pressure” value ([2]; 339.2 K) was 167.2 ± 34 J/K/mol and the “molar heat capacity at constant pressure” value ([2]; 339.6 K) was 167.3 ± 34 J/K/mol. The “molar heat capacity at constant pressure” value ([2]; 339.9 K) was 167.4 ± 34 J/K/mol, the “molar heat capacity at constant pressure” value ([2]; 340.3 K) was 167.5 ± 34 J/K/mol and the “molar heat capacity at constant pressure” value ([2]; 340.7 K) was 167.6 ± 34 J/K/mol. The “molar heat capacity at constant pressure” value ([2]; 341 K) was 167.7 ± 34 J/K/mol, the “molar heat capacity at constant pressure” value ([2]; 341.4 K) was 167.8 ± 34 J/K/mol and the “molar heat capacity at constant pressure” value ([2]; 341.8 K) was 167.9 ± 34 J/K/mol. The “molar heat capacity at constant pressure” value ([2]; 342 K) was 168 ± 34 J/K/mol.
For `N#Cc1ccc2ccccc2c1` [2-naphthalenecarbonitrile], the “vapor or sublimation pressure” value ([1]; 315.5 K) was 0.00091 ± 5e-05 kPa, the “vapor or sublimation pressure” value ([1]; 318.4 K) was 0.00122 ± 6e-05 kPa and the “vapor or sublimation pressure” value ([1]; 320.5 K) was 0.00152 ± 8e-05 kPa. For the same compound, the “vapor or sublimation pressure” value ([1]; 322.4 K) was 0.00195 ± 0.0001 kPa, the “vapor or sublimation pressure” value ([1]; 324.5 K) was 0.00237 ± 0.00011 kPa and the “vapor or sublimation pressure” value ([1]; 326.4 K) was 0.00284 ± 0.00014 kPa. For the same compound, the “vapor or sublimation pressure” value ([1]; 328.2 K) was 0.0035 ± 0.0002 kPa, the “vapor or sublimation pressure” value ([1]; 331.3 K) was 0.00463 ± 0.00022 kPa and the “vapor or sublimation pressure” value ([1]; 333.2 K) was 0.00579 ± 0.00029 kPa. The “vapor or sublimation pressure” value ([1]; 334.2 K) was 0.00641 ± 0.00032 kPa, the “molar heat capacity at constant pressure” value ([2]; 313.8 K) was 182.1 ± 37 J/K/mol and the “molar heat capacity at constant pressure” value ([2]; 314.4 K) was 182.8 ± 37 J/K/mol. The “molar heat capacity at constant pressure” value ([2]; 314.9 K) was 183.3 ± 37 J/K/mol, the “molar heat capacity at constant pressure” value ([2]; 315.3 K) was 183.7 ± 37 J/K/mol and the “molar heat capacity at constant pressure” value ([2]; 315.8 K) was 184.2 ± 37 J/K/mol. For the same compound, the “molar heat capacity at constant pressure” value ([2]; 316.3 K) was 184.6 ± 38 J/K/mol, the “molar heat capacity at constant pressure” value ([2]; 316.8 K) was 185 ± 38 J/K/mol and the “molar heat capacity at constant pressure” value ([2]; 317.3 K) was 185.3 ± 38 J/K/mol. The “molar heat capacity at constant pressure” value ([2]; 317.8 K) was 185.4 ± 38 J/K/mol, the “molar heat capacity at constant pressure” value ([2]; 318.2 K) was 185.5 ± 38 J/K/mol and the “molar heat capacity at constant pressure” value ([2]; 318.7 K) was 185.9 ± 38 J/K/mol. The “molar heat capacity at constant pressure” value ([2]; 319.2 K) was 186.1 ± 38 J/K/mol, the “molar heat capacity at constant pressure” value ([2]; 319.6 K) was 186.3 ± 38 J/K/mol and the “molar heat capacity at constant pressure” value ([2]; 320.1 K) was 186.6 ± 38 J/K/mol. For the same compound, the “molar heat capacity at constant pressure” value ([2]; 320.5 K) was 186.8 ± 38 J/K/mol, the “molar heat capacity at constant pressure” value ([2]; 320.9 K) was 187.1 ± 38 J/K/mol and the “molar heat capacity at constant pressure” value ([2]; 321.4 K) was 187.4 ± 38 J/K/mol. For the same compound, the “molar heat capacity at constant pressure” value ([2]; 321.8 K) was 187.5 ± 38 J/K/mol, the “molar heat capacity at constant pressure” value ([2]; 322.2 K) was 187.8 ± 38 J/K/mol and the “molar heat capacity at constant pressure” value ([2]; 322.7 K) was 188.1 ± 38 J/K/mol. The “molar heat capacity at constant pressure” value ([2]; 323.1 K) was 188.4 ± 38 J/K/mol, the “molar heat capacity at constant pressure” value ([2]; 323.5 K) was 188.6 ± 38 J/K/mol and the “molar heat capacity at constant pressure” value ([2]; 323.9 K) was 188.9 ± 38 J/K/mol. For the same compound, the “molar heat capacity at constant pressure” value ([2]; 324.4 K) was 189.1 ± 38 J/K/mol, the “molar heat capacity at constant pressure” value ([2]; 324.8 K) was 189.5 ± 38 J/K/mol and the “molar heat capacity at constant pressure” value ([2]; 325.2 K) was 189.8 ± 38 J/K/mol. For the same compound, the “molar heat capacity at constant pressure” value ([2]; 325.6 K) was 190.2 ± 39 J/K/mol, the “molar heat capacity at constant pressure” value ([2]; 326 K) was 190.7 ± 39 J/K/mol and the “molar heat capacity at constant pressure” value ([2]; 326.4 K) was 191.2 ± 39 J/K/mol. For the same compound, the “molar heat capacity at constant pressure” value ([2]; 326.8 K) was 191.5 ± 39 J/K/mol and the “molar heat capacity at constant pressure” value ([2]; 327.1 K) was 191.8 ± 39 J/K/mol.

Reference: the NIST ThermoML archive (doi:10.1016/j.tca.2018.07.026)
